Measurements as given in ChEMBL document CHEMBL5726170, “Histone demethylase inhibitors” (2019).

Assay: JMJD2C Assay: The ability of test compounds to inhibit the activity of JMJD2C was determined in 384-well plate format under the following reaction conditions: 0.3 nM JMJD2C, 300 nM H3K9me3-biotin labeled peptide (Anaspec cat #64360), 2 μM alpha-ketoglutaric acid in assay buffer of 50 mM HEPES, pH7.3, 0.005% Brij35, 0.5 mM TCEP, 0.2 mg/ml BSA, 50 μM sodium L-ascorbate, and 2 μM ammonium iron(II) sulfate. Reaction product was determined quantitatively by TR-FRET after the addition of detection reagent Phycolink Streptavidin-allophycocyanin (Prozyme) and Europium-anti-di-methylated histone H3 lysine 9 (H3K9me2) antibody (PerkinElmer) in the presence of 5 mM EDTA in LANCE detection buffer (PerkinElmer) at a final concentration of 50 nM and 1 nM, respectively.The assay reaction was initiated by the following: 2 μl of the mixture of 900 nM H3K9me3-biotin labeled peptide and 6 μM alpha-ketoglutaric acid with 2 μl of 11-point serial diluted inhibitor in 3% DMSO were added to each well of the plate, followed by the addition of 2 μl of 0.9 nM JMJD2C to initiate the reaction. The reaction mixture was incubated at room temperature for 30 min, and terminated by the addition of 6 μl of 5 mM EDTA in LANCE detection buffer containing 100 nM Phycolink Streptavidin-allophycocyanin and 2 nM Europium-anti-H3K9me2 antibody. Plates were read by EnVisionMultilabel Reader in TR-FRET mode (excitation at 320 nm, emission at 615 nm and 665 nm) after 1 hr incubation at rt. A ratio was calculated (665/615) for each well and fitted to determine inhibition constant (IC50).

IC50 | Structure (SMILES)
in the range around 0.55 µM | O=C(O)c1ccncc1NCC1CCOc2cc(F)ccc21 (centres undefined)
in the range around 5.5 µM | O=C(O)c1ccncc1NCC1CCCc2cc(OC(F)(F)F)ccc21 (centres undefined)
in the range around 5.5 µM | O=C(O)c1ccncc1NCC1CCCc2c(OCC3CC3)cccc21 (centres undefined)
in the range around 5.5 µM | O=C(O)c1ccncc1NCC1CCCc2c(Oc3ccccc3)cccc21 (centres undefined)
